The values that follow come from ChEMBL document CHEMBL1275397, “Effects on molecular conformation and anticoagulant activities of 1,6-anhydrosugars at the reducing terminal of antithrombin-binding octasaccharides isolated from low-molecular-weight heparin enoxaparin” (J Med Chem, 2010).

pKd: −log10 of the molar value.

Experiment [1] in a line: Binding affinity to human antithrombin in HEPES buffer containing 0.25 M sodium chloride assessed as increase of serpin intrinsic fluorescence by fluorospectrophotometric analysis.
Experiment [2] deals with Coagulation factor X (Homo sapiens) (UniProt P00742). The experiment is described as follows: Inhibition of factor 10a in aqueous buffer solutions assessed as specific activity of enzyme.
The target is the same in experiment [3]. The experiment is described as follows: Inhibition of factor 10a in human plasma assessed as specific activity of enzyme. The format is cell-free.
The nature of experiment [4]: Binding affinity to human antithrombin in HEPES buffer containing 0.1 M sodium chloride assessed as increase of serpin intrinsic fluorescence by fluorospectrophotometric analysis.
The nature of experiment [5]: Binding affinity to human antithrombin in HEPES buffer containing 0.50 M sodium chloride assessed as increase of serpin intrinsic fluorescence by fluorospectrophotometric analysis.

Chain of Coagulation factor X (Homo sapiens) (P00742 41-179 limits assumed): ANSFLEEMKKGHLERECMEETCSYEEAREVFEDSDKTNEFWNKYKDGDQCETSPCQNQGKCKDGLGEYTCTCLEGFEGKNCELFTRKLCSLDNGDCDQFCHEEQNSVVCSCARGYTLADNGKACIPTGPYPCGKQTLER
Chain of Coagulation factor X (Homo sapiens) (P00742 235-488 limits assumed): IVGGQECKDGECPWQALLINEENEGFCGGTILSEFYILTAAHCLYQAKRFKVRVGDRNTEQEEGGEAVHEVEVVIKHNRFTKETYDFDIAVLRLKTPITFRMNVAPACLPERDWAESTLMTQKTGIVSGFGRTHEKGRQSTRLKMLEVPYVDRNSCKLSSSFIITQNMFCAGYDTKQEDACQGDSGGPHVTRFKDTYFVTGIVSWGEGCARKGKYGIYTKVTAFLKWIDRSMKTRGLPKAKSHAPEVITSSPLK

As for `CC(=O)N[C@H]1[C@@H](O[C@H]2[C@H](O)[C@@H](O)[C@H](O[C@H]3[C@H](OS(=O)(=O)O)[C@@H](NS(=O)(=O)O)[C@@H](O[C@H]4[C@H](O)[C@@H](OS(=O)(=O)O)[C@H](O[C@H]5[C@H](O)[C@H](NS(=O)(=O)O)[C@H]6OC[C@H]5O6)O[C@H]4C(=O)O)O[C@@H]3COS(=O)(=O)O)O[C@@H]2C(=O)O)O[C@H](COS(=O)(=O)O)[C@@H](O[C@@H]2O[C@@H](C(=O)O)[C@@H](O[C@H]3O[C@H](COS(=O)(=O)O)[C@@H](O[C@@H]4OC(C(=O)O)=C[C@H](O)[C@H]4OS(=O)(=O)O)[C@H](O)[C@H]3NS(=O)(=O)O)[C@H](O)[C@H]2O)[C@@H]1O`, the negative-log Kd (pKd) in experiment [1] is < 5.00; in experiment [4], 6.05. Also, the Activity came to 51.4 U/mg in experiment [2] and 49.6 U/mg in experiment [3].

On to `CC(=O)N[C@H]1[C@@H](O[C@H]2[C@H](O)[C@@H](O)[C@H](O[C@H]3[C@H](OS(=O)(=O)O)[C@@H](NS(=O)(=O)O)[C@@H](O[C@H]4[C@H](O)[C@@H](OS(=O)(=O)O)[C@H](O[C@H]5[C@H](O)[C@@H](NS(=O)(=O)O)[C@@H](O)O[C@@H]5COS(=O)(=O)O)O[C@H]4C(=O)O)O[C@@H]3COS(=O)(=O)O)O[C@@H]2C(=O)O)O[C@H](COS(=O)(=O)O)[C@@H](O[C@@H]2O[C@@H](C(=O)O)[C@@H](O[C@H]3O[C@H](COS(=O)(=O)O)[C@@H](O[C@@H]4OC(C(=O)O)=C[C@H](O)[C@H]4OS(=O)(=O)O)[C@H](O)[C@H]3NS(=O)(=O)O)[C@H](O)[C@H]2O)[C@@H]1O`, for which the results for the negative logarithm of the Kd (pKd) in experiment [5] and in experiment [4] were 5.56 and 6.92, respectively.

Take `CC(=O)N[C@H]1[C@@H](O[C@H]2[C@H](O)[C@@H](O)[C@H](O[C@H]3[C@H](OS(=O)(=O)O)[C@@H](NS(=O)(=O)O)[C@@H](O[C@H]4[C@H](O)[C@@H](OS(=O)(=O)O)[C@H](O[C@H]5[C@H](O)[C@@H](NS(=O)(=O)O)[C@H]6OC[C@H]5O6)O[C@H]4C(=O)O)O[C@@H]3COS(=O)(=O)O)O[C@@H]2C(=O)O)O[C@H](COS(=O)(=O)O)[C@@H](O[C@@H]2O[C@@H](C(=O)O)[C@@H](O[C@H]3O[C@H](COS(=O)(=O)O)[C@@H](O[C@@H]4OC(C(=O)O)=C[C@H](O)[C@H]4OS(=O)(=O)O)[C@H](O)[C@H]3NS(=O)(=O)O)[C@H](O)[C@H]2O)[C@@H]1O`: the results for the pKd in experiment [1] and in experiment [4] were < 5.00 and 5.91, respectively. In addition, the Activity in experiment [2] came to 39.6 U/mg; in experiment [3], 39.3 U/mg.
